In patent US8791158B2, “Methods of treating meibomian gland dysfunction” (GTX, Inc., priority 2010, dated 2014):
Where two headings read alike, the source gives them in different places.

Legend:
[1] = Pharmacokinetic analysis of rabbit plasma after topical dosing, Example 5; assay type: in vivo; details: for Amount of drug absorbed into systemic circulation at lower doses compared to exposure at 2.5 mg/kg: lower topical doses vs 2.5 mg/kg (Table 6); for AUC: rabbit, plasma, topical or ocular, day 11, read-out: Systemic AUC
Method: Immediately after recovery from anesthesia, the animals were dosed with the appropriate test articles as indicated above. Drug dosing was performed once daily for 14 d. Blood samples were collected on day 11 of dosing at 0, 30, 60, 120, 240 and 1440 minutes post administration and to plasma separated for LCMS analysis of parent drug concentrations. Tears were collected using Schirmer tear strips (Alcon, Tex.) on day 0 before surgery and 24 hours after the last administration of drug (day 15). The tears were stored at −80° C. until shipment for lipid analysis. Lipids were hydrolyzed, extracted from the Schirmer strips, derivatized, and subjected to GC-FID to evaluate the lipid composition. The samples were evaluated for the presence of 28 saturated and unsaturated fatty acids that included methyl caprate (C10:0), methyl laurate (C12:0), methyl 11-dodecenoate (C12:1), methyl myri state (C14:0), methyl myristoleate (C14:1), methyl palmitate (C16:0), methyl palmitoleate (C16:1), methyl stearate (C18:0), methyl oleate (C18:1), methyl vaccenate (C18:1), methyl linoleate (C18:2), methyl gamma linoleate (C18:3), methyl linoleate (C18:3), methyl arachidate (C20:0), methyl 11-eicosenoate (C20:1), methyl 11,14 eicosadinoate (C20:2), methyl 8,11,14 eicosatrienoate (C20:3), methyl eicosapentaenoate (C20:5), methyl behenate (C22:0), methyl erucate (C22:1), methyl 13,16 docosaenoate (C22:2), methyl docosatetraenoate (C22:4), methyl docosapentaenoate (C22:5), methyl docosahexaenoate (C22:6), methyl lignocerate and (C24:0), methyl nervonate (C24:1). Area under the curve for each individual peak was determined using the GC ChemStation software. To normalize for the tear content, the lipid composition was expressed as a ratio of the lipid that was most affected by castration (palmitate) to one which remained relatively constant (stearate).
Plasma samples collected after dosing were analyzed using an LCMS/MS method. Briefly, plasma samples were prepared by protein precipitation extraction. (S)—N-(4-Cyano-3-(trifluoromethyl)phenyl)-3-(4-chlorophenoxy)-2-hydroxy-2-methylpropanamide was used as internal standard. The analysis of Compound 1 and Compound 2 was performed using an LC-MS/MS system consisting of an Agilent 1100 HPLC with an MDS/Sciex 4000 Q-Trap™ mass spectrometer. The separation was achieved using a C18 analytical column (Alltima™, 2.1×100 mm, 3 μm) protected by a C18 guard column (SecurityGuard™ 4.0×2.0 mm ID, Phenomenex). Mobile phase consisted of 60% acetonitrile, 40% water and 0.1% formic acid. Mobile phase was delivered at a flow rate of 0.3 mL/min Multiple reaction monitoring (MRM) scans were performed using curtain gas and a source temperature of 500° C. Molecular ions were formed using an ion spray voltage of −4500 V. Product ions were formed in nitrogen gas at a declustering potential of −55 V (Compound 1), −64 V (Compound 2), and −78 V (Internal standard) and collision energy of −24.0 V (Compound 1, m/z 388.0→117.9), −26.0 V (Compound 2, m/z 406.1→135.9), and −22.4 V (Internal standard, m/z 396.9→241.0). The plasma concentration—time data were analyzed by non-compartmental methods using WinNonlin (Version 3.1, Pharsight Corporation, Mountain View, Calif., USA). The area under the plasma concentration—time curve from time zero to infinity (AUC) was calculated by the trapezoidal rule with extrapolation to time infinity.
Systemic exposures after topical administration of the blood was determined in peripheral blood samples obtained at 30, 60, […], 240 and 1440 minutes after drug administration on day 11 of the study.

[2] = system: acute orchiectomized (ORX) rabbit model; experiment: Oil-Red-O lipid staining score of Meibomian gland (eyelid) sections, Example 4; assay type: in vivo; details: ORX rabbits, topical 2.5 mg/kg; scale 0-4 by % cells stained; sham 3.75, ORX vehicle 3.2
Method: At the end of the study, the animals were euthanatized. The left harderian and Meibomian glands were collected for lipid analysis and snap frozen using an ethanol:dry ice bath. Samples were stored at −80° C. until shipment for analysis. The right eyelids were embedded in OCT medium and shipped to Paragon Biosciences (Washington D.C.) for histology and Oil-red-O quantification of lipids. Images of three separate fields were taken from each eyelid at random and the amount of cells staining red in each field was scored using commercially available software. A scoring scheme was adopted with a scale of 0-4 to evaluate the staining intensities with 0=<1% cells stained, 1+ for 2-5% of cells stained, 2+=6-10% stain, 3+=11-20% staining, 4+ for >21% cells stained.
Oil-Red-O is a lipophilic dye that is commonly used to stain lipid containing cells in histological sections. The amount of Oil-Red-O stain in each section is proportional to the number of cells synthesizing or storing lipid. A relative scoring system was adopted to evaluate the differences in lipid content of the Meibomian gland sections from treated and untreated animals in the study. […] Upon treatment with Compound 2, the lipid staining was seen to increase to that of the intact animals (score=3.8).

| Structure (SMILES) | Amount of drug absorbed into systemic circulation at lower doses compared to exposure at 2.5 mg/kg [1] | AUC ([1]; 0.625 mg/kg, topical 0.625 mpk) [µM·h] | AUC ([1]; 1.25 mg/kg, topical 1.25 mpk) [µM·h] | Oil-Red-O score [2] |
| --- | --- | --- | --- | --- |
| C[C@](O)(COc1ccc(C#N)cc1)C(=O)Nc1ccc(C#N)c(C(F)(F)F)c1 [Compound 1, (S)—N-(4-Cyano-3-(trifluoromethyl)phenyl)-3-(4-cyanophenoxy)-2-hydroxy-2-methylpropanamide] | ⅛^th | 2.87 | 3.99 | 3.4 |
| C[C@](O)(COc1ccc(C#N)c(F)c1)C(=O)Nc1ccc(C#N)c(C(F)(F)F)c1 [Compound 2, (S)—N-(4-cyano-3-(trifluoromethyl)phenyl)-3-(4-cyano-3-fluorophenoxy)-2-hydroxy-2-methylpropanamide] | ¼^th | 3.2 | 6.92 | 3.8 |
